The text below walks through data of patent publication US9034918B2, “Composition including at least one trans-cinnamaldehyde and the use thereof in the treatment of bacterial infections, specifically in the treatment of nosocomial infections” (SEPTEOS, priority 2009, dated 2015).

Type in all cases: cell-based
The test system of assay [1] is Gram-positive bacteria and Gram-negative bacteria, resistant strains. The assay can be described thus: Agar test, summary over the strains tested. The conditions noted are these: also on resistant strains, low volume concentrations. An excerpt:
For bacteria to have good accessibility (aqueous phase multiplication only) to essential oils, it is essential to find a method of aqueous phase solubilization. This step is neglected in much work that directly uses the lipid phase, which is inaccessible to bacteria (oil-soaked disc placed on agar). Moreover, for the topical use of oils, this solubilization phase is also essential, and with the goal of practical application, surfactants and solubilization adjuvants are also selected for their satisfactory cutaneous tolerance.
The final preparation includes: 1.0 ml of essential oil, 3.4 ml of Tween 80 and 5.6 ml of 10% molar propylene glycol aqueous solution.
The day before the test, inoculate the strains in BH medium and on tilted MHA. Prepare test tubes containing 19 ml and 18 ml of MHA. Prepare test tubes containing 5 ml of 10% molar propylene glycol for the various dilutions.
On the day of the test, solubilize the trans-cinnamaldehyde as follows: • 1 ml of trans-cinnamaldehyde • 3.4 ml of Tween 80 • 5.6 ml of 10% molar propylene glycol.
When the trans-cinnamaldehyde is solubilized, prepare successive 1/2 dilutions in 10% molar propylene glycol.
Add 1 ml of suitable dilutions in the test tubes containing 19 ml of medium, homogenize well and pour into Petri dishes. […]

The next assay has as its system E. coli ATCC 25922. Description: Antibiogram by diffusion technique (CA-SFM 2008). Also noted: Diameter (D): unit not given here.
For assay [2], the system named is Pseudomonas aeruginosa strain 8128. Description: Antibiogram by diffusion technique (CA-SFM 2008). Also noted: D: unit not given here. An outline of the steps:
(§1)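 Read-out is the inhibition zone diameter after 24 hours at 37° C, converted into sensitive, intermediate or resistant categories using CA-SFM 2008 critical diameters. Plates were Mueller-Hinton agar swabbed with a 1/100 dilution of a 0.5 McFarland inoculum.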

A further assay relates to E. coli strain 8157. Description: Antibiogram by diffusion technique (CA-SFM 2008). On the set-up: D: unit not given here. The method, boiled down: as §1
The subject of assay [3] is golden staph (S. aureus) strain 8240. Description: Antibiogram by diffusion technique (CA-SFM 2008). On the set-up: D: unit not given here. The method, boiled down:
as §1

In assay [4] the test system is golden staph (S. aureus) strain 8239. Description: Antibiogram by diffusion technique (CA-SFM 2008). On the set-up: D: unit not given here. The method, boiled down: as §1
Assay [5] has as its system Pseudomonas aeruginosa strain 8134. Description: Antibiogram by diffusion technique (CA-SFM 2008). Also noted: D: unit not given here. The method, boiled down:
as §1

Assay [6] has as its system Pseudomonas aeruginosa strain 8132. Description: Antibiogram by diffusion technique (CA-SFM 2008). Also noted: D: unit not given here. The method, boiled down: as §1
The next assay has as its system E. coli strain 8155. The assay can be described thus: Antibiogram by diffusion technique (CA-SFM 2008). On the set-up: D: unit not given here. The method, boiled down:
as §1

The test system of assay [7] is golden staph (S. aureus) strain 8147. Description: Antibiogram by diffusion technique (CA-SFM 2008). On the set-up: D: unit not given here. The method, boiled down: as §1
The test system of assay [8] is Pseudomonas aeruginosa strain 8129. Description: Antibiogram by diffusion technique (CA-SFM 2008). On the set-up: D: unit not given here. An outline of the steps: as §1
The test system of the next assay is E. coli strain 8154. The assay can be described thus: Antibiogram by diffusion technique (CA-SFM 2008). On the set-up: D: unit not given here. An outline of the steps:
as §1

In a further assay the test system is E. coli strain 8156. Description: Antibiogram by diffusion technique (CA-SFM 2008). Also noted: D: unit not given here. An outline of the steps: as §1
Assay [9] deals with strain 9007, Pseudomonas aeruginosa, with VIM-2 carbapenemase. Description: Antibiogram by diffusion technique (CA-SFM 2008). An outline of the steps:
as §1

Assay [10] concerns Enterococcus faecium (9001). Description: Antibiogram by diffusion technique (CA-SFM 2008). The conditions noted are these: strain 9001. The method, boiled down:
as §1

The test system of assay [11] is Enterobacter aerogenes (9004). The assay can be described thus: Antibiogram by diffusion technique (CA-SFM 2008). The settings on record: strain 9004. An outline of the steps:
as §1

In another assay the test system is E. coli strain 9003. The assay can be described thus: Antibiogram by diffusion technique (CA-SFM 2008). An outline of the steps: as §1
The test system of assay [12] is strain 9010, Acinetobacter baumannii, with VEB-1 ESBL. Description: Antibiogram by diffusion technique (CA-SFM 2008). The method, boiled down: as §1
The test system of the next assay is Enterococcus strain 8152. The assay can be described thus: Antibiogram by diffusion technique (CA-SFM 2008). On the set-up: Diameter: unit not given here. The method, boiled down: as §1
The next assay deals with Enterococcus strain 8153. Description: Antibiogram by diffusion technique (CA-SFM 2008). On the set-up: Diameter: unit not given here. The method, boiled down:
as §1
For Cat. in this document: key: sensitive (S): strains for which the MIC of the antibiotic tested is less than or equal to the lower critical concentration c; resistant (R): strains for which the MIC of the antibiotic tested are greater than the upper critical concentration C; intermediate sensitivity (I): strains for which the MIC of the antibiotic tested and the corresponding diameter are between the two critical concentrations and the two critical diameters.
For Category (Cat.) in this document: key: sensitive (S): strains for which the MIC of the antibiotic tested is less than or equal to the lower critical concentration c; resistant (R): strains for which the MIC of the antibiotic tested are greater than the upper critical concentration C; intermediate sensitivity (I): strains for which the MIC of the antibiotic tested and the corresponding diameter are between the two critical concentrations and the two critical diameters.

Take `O=C/C=C/c1ccccc1` [trans-cinnamaldehyde]: the “Spectrum of antibacterial activity” value in assay [1] is “antibacterial activity on both Gram-positive bacteria and Gram-negative bacteria”.

Gentamicin: in the assay on E. coli ATCC 25922, the “Category (Cat.)” value is recorded as “S”. Moreover, the “Diameter (D)” value in the assay on E. coli ATCC 25922 amounted to 25. Also, the Cat. entry in assay [2] was “S”; with E. coli strain 8157, “S”; in assay [3], “S”; in assay [4] it was “S”; in assay [5] it was “R”; in [6] it was “R”. For the same molecule, the Cat. entry (in the assay on E. coli strain 8155; in [7]; in assay [8]; with E. coli strain 8154; in the assay on E. coli strain 8156) was “S” each time. For the same molecule, the D is 27 in assay [2]; 25 in the assay with E. coli strain 8157; 27 in assay [3]; 28 in assay [4]; 0 in [5]; 16 in assay [6]. For the same molecule, the D is 21 with E. coli strain 8155; 26 in [7]; 21 in assay [8]; 21 with E. coli strain 8154; 25 in the assay on E. coli strain 8156. For the same molecule, the Category result was “S” in assay [9]; “S” in assay [10]; “S” in assay [11]; “S” in the assay with E. coli strain 9003; “R” in [12]; “R” with Enterococcus strain 8152. The Category entry with Enterococcus strain 8153 is recorded as “R”. For the same molecule, the Diameter stood at 15 in the assay with Enterococcus strain 8152 and 14 in the assay with Enterococcus strain 8153.
